Laboratory results: US11767313B2, “Compounds as nuclear transport modulators and uses thereof” (XWPHARMA LTD., priority 2018, dated 2023)
pIC50: −log10 of the molar value.

Key:
HCT116 = test: Cytotoxicity, cell proliferation assay, HCT116 colon cancer; assay type: cell-based; details: Table 8
Procedure: (§1) CellTiter-Glo® Luminescent Cell Viability assay (with Promega CellTiter 96® Luminescent CellTiter-Glo® kit) was used to study the proliferation inhibition by test compounds. Compounds were resuspended in DMSO to make a 25 mM stock suspension. Cells of cancer cell lines or normal tissues were seeded in 96-well plates at 1,500 to 5,000 cells/well overnight. Compounds were 2- or 3-fold diluted serially to obtain 10 concentrations. Then, the drugs were added to the cell wells by Bravo (Agilent) and incubated for 72 hours. The cells were lysed by adding CellTiter-Glo® Reagent (per manufacturer's instructions) and subsequently, the luminescence was read using EnVision® (PerkinElmer).
(§2) The percent of growth was calculated as follows. DMSO-treated cells were employed as vehicle control (High control, HC) and culture medium alone was employed as background (Low control, EC). % growth=100×(Lum sample−Lum EC)/(Lum HC−Lum EC). The ICso was calculated by concentration-response curve fitting using Graphpad Prism.
The cytotoxicity of test compounds in brain (HCN2), colon cancer (HCT116) and normal colon cell (C8-B4) lines was determined using the cell proliferation assay as described in Example 19.

A-172 = test: CellTiter-Glo cell viability assay, A-172; assay type: cell-based; details: Homo sapiens, Table 6
Procedure: as §1, §2
The inhibition activity of test compounds was determined in A-172, U87MG and 3T3-L1 cell lines.
A CellTiter-Glo® luminescent cell viability assay was performed s described in Example 1.

[1] = Pharmacokinetic profile in plasma; assay type: in vivo; details: P.O., mice
Procedure: Blood was collected from mice (n=3, or 5) to contribute to the total of 10 time points (pre-dose, 5 min, 15 min, 30 min, 1 hour, 2 hours, 4 hours, 8 hours, 12 hours and 24 hours). At the designated time points, animals were anaesthetized under isoflurane, and approximately 110 μL of blood per time point was collected via retro-orbital puncture into pre-cooled K2EDTA tubes. Blood samples were put on wet ice and centrifuged (2000 g, 5 min at 4° C.) to obtain plasma within 30 minutes of sample collection. All samples were stored frozen at approximately −80° C. until analysis. Prior to analysis, samples were mixed with internal standard in acetonitrile, vortexed, centrifuged, and supernatant was injected for analysis. Concentration of compounds in plasma was determined using LC-MS-MS instrumentation (API 4000, Triple Quadrupole LC/MS/MS Mass Spectrometer). AUC values were calculated using Phoenix Win Nonlin 6.3 software package, PO-Noncompartmental model 200 (extravascular input).

3T3 = test: Cytotoxicity, cell proliferation assay, 3T3; assay type: cell-based; details: Mus musculus, NIH3T3; Table 9
Procedure: as §1, §2
The cytotoxicity of test compounds was also determined in glioblastoma (U87MG)), brain (HCN2) and 3T3 cell lines was determined using the cell proliferation assay as described in Example 19.

[2] = mouse, in vivo, po
Ki67 = test: PD effects by IHC in U87MG-luc orthotopic model, Ki67; assay type: in vivo, mice; details: orally three times a week for 2 weeks; vs vehicle control
Procedure: Based on the bioluminescent signal of tumor, mice were randomly assigned to respective groups using a computer-generated randomization procedure, which included vehicle and compound III-treated groups, respectively, with 5 animals per group. Compound III (20 mg/kg) was given orally 3 times a week (on Day 1, 3, 5) for 2 weeks. Animals for IHC study were euthanized at 6 hours after the last dose and perfused with normal saline followed by fixation with 4% paraformaldehyde. Entire brains containing tumors were collected and kept in fixative for 24 hours before proceeding for paraffin block.

U87MG-luc tumor = test: U87MG-luc human glioblastoma orthotopic model; assay type: in vivo; details: 20 mg/kg orally, 3 times/week, 4 weeks
Description: Animals: Female BALB/c Nude mice (Supplied by Beijing AniKeeper Biotech Co., Ltd., 6-8 weeks old/18-22 g) were used. General procedures for animal care and using were in accordance with the standard operating procedures (SOPs) of Pharmaron, Inc.
Grouping and Treatments: Grouping and treatment were started on Day 7 post tumor cells inoculation. Mice were imaged to monitor the tumor growth, then mice were randomly assigned to respective groups using a computer-generated randomization procedure. All test articles were administered orally 20 mg/kg with 3 times/week, for 4 weeks post tumor implantations (n=12 per group).
Cell Culture: The Human glioblastoma U87-luc tumor cell line was maintained in vitro as monolayer culture and used for tumor inoculation
Tumor Inoculation and Randomization: 2.5×10^5 luciferase-expressing U87MG-luc tumor cells suspended in 2 μL MEM medium were injected into the right forebrain by positioning the needle at AP: 2.0 mm, ML: 0.5-1.0 mm, DV: 3.0 mm from bregma. The injection was slowly proceeding over a one-minute period. Upon completing injection, the needle was retained for another minute. Measurement Parameters: Tumor growth (monitored by image analysis), body weight and survival days were recorded.
Termination Criterion: Individual animal was humanely sacrificed by carbon dioxide when body weight loss >20% and animals could not get to adequate food or water.
Statistical Analysis: Data was recorded as means±standard error of the mean for all measurement parameters as study designed. All statistical tests were conducted by SPSS 17.0 statistical software, and the level of significance is set at p<0.05.

in vivo = details: female, mouse
XPO1 = XPO1 (Homo sapiens, UniProt O14980); test: Compound washout assay in REV-GFP cells; details: for XPO1 inhibition post washout: 400 nM (EC90); for effect on nuclear retention of REV: at EC50 (120 nM)
Procedure: In order to evaluate the duration of XPO1 inhibition by test compounds on XPO1 protein after washout, washout assay was performed using REV-GFP cells. The test compounds and positive control were added to the cell well, and the plate was incubated the at 37° C. and 5% CO2 for 1 h. The drug-containing media were removed, the cells were washed, and the fresh media were added. The cells were imagined at the specified time points 0, 4, 24, 48, 72, and 96 hours to evaluate the inhibition of REV nuclear export. […] 4A. […] 4B. […] 4C.

Chain of XPO1 (O14980 whole entry): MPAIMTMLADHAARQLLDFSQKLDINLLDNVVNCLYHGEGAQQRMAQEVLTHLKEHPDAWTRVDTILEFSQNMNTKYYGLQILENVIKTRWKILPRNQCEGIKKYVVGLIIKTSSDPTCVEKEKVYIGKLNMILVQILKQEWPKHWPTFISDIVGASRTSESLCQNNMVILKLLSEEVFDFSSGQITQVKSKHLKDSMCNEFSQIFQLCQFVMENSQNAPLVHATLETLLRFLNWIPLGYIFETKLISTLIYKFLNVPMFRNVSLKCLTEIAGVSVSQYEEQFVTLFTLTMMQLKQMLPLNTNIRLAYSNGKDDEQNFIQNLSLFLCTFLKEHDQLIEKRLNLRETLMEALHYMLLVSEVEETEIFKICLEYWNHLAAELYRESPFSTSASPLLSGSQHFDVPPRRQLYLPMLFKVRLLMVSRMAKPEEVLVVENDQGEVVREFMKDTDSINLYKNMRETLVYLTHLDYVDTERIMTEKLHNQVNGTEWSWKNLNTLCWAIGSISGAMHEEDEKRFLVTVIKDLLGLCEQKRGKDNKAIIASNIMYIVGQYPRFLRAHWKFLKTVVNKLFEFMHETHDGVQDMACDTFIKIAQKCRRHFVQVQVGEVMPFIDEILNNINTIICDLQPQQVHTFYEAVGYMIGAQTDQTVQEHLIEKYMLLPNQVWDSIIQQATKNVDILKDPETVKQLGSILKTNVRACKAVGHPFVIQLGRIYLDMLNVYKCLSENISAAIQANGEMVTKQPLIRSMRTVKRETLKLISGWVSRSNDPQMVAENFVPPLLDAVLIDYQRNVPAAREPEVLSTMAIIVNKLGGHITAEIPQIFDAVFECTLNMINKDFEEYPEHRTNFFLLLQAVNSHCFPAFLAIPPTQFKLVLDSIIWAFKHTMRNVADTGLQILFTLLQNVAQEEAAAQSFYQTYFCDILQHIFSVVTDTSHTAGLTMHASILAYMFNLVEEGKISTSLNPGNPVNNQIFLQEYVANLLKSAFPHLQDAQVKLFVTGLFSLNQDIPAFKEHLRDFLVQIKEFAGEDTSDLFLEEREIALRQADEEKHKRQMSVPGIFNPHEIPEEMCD

## O=C(/C=C\n1cnc(-c2cc(C(F)(F)F)cc(S(F)(F)(F)(F)F)c2)n1)NNc1cnccn1 [Compound I, (Z)-3-(3-(3-(pentafluorosulfanyl)-5-(trifluoromethyl)phenyl)-1H-1,2,4-triazol-1-yl)-N′-(pyrazin-2-yl)acrylohydrazide]
HCT116; Homo sapiens, HCT-116
  pIC50: 5.22
HCT116
  HCT116 Max % inh: 88%
A-172
  pIC50: 6.39
[1]
  AUG0-inf: 10430 ng·h/mL
[1]; mouse, po
  Cmax: 2550 ng/mL
  Tmax: 0.75 h
  half-life: 4.72 h
[1]; mouse, po, read-out: MRT0-inf
  MRT inf: 5.55 h
[1]; mouse, po, read-out: MRT0-last
  MRT last: 4.51 h
3T3
  pIC50: < 4.30
[2]
  survival in MTD study: survived

## CC(C)(C)C(=O)NNC(=O)/C=C\n1cnc(-c2cc(C(F)(F)F)cc(S(F)(F)(F)(F)F)c2)n1 [Compound III, (Z)-3-(3-(3-(Pentafluorosulfanyl)-5-(trifluoromethyl)phenyl)-1H-1,2,4-triazol-1-yl)-N′-pivaloylacrylohydrazide]
Ki67
  expression of Ki67 in tumors (IHC): significantly decreased
U87MG-luc tumor
  bodyweight loss (individual animal): less than 10%
  medium survival time (MST): 47 days
  tolerability: well tolerated by most animals
U87MG-luc tumor; end of treatment period
  reduction in bioluminescence signal compared with the vehicle control group: 99%
In vivo
  MTD: < 25 mg/kg
XPO1; 4 hours post washout
  XPO1 inhibition post washout: sustained XPO1 inhibition
  effect on nuclear retention of REV: 20%
XPO1; by 24 hours post washout
  XPO1 inhibition post washout: gradually diminished
XPO1; 24 hours post washout
  effect on nuclear retention of REV: completely lost
XPO1; following 1-hour treatment
  effect on nuclear retention of REV: about 40%
XPO1; washout assay
  toxicity / cell number compared to the control: no decrease in the cell number was observed
